Results on four compounds are retold here after US6482411B1, “Methods of reducing bone loss with CD40 ligand” (Board of Regents, The University of Texas System, priority 1999, dated 2002).

Marks after values point to notes of the source that are not given here.

For series [1], the system named is MLO-Y4 osteocytic cell line. Briefly: Trypan blue exclusion (cell death) in MLO-Y4 cells. It is filed as cell-based, murine. Particulars: CD40L pretreatment 15 min where given, then dexamethasone 10^-6 M (10^-7 M earlier), TNFα or etoposide 50 μM for 6 h. As to the method: The MLO-[…][…] (0.5-1.5 μg/ml) for 15 mins. followed by treatment with either dexamethasone at 10^-6 M (10^-7M in earlier studies), TNFα at 1 ng/ml or etoposide at 50 μM for 6 hrs. […] Trypan Blue Exclusion: Staining of cultured cells with vital dyes such as trypan blue is commonly used approach to quantify cell death. This is based on the premise that viable cells with intact membranes will exclude specific dyes such as trypan blue, which can easily be quantified under light microscopy ([…], 1998). The percentage of trypan blue positive cells in each culture condition was used to calculate cell survival. This method is […] for screening multiple samples or treatment conditions, but can underestimate cell death since membrane integrity can be intact until late in apoptosis. Trypan vital dye staining is not specific for apoptosis and will also stain necrotic cells. This was confirmed by additional analysis discussed below. Apoptosis of MLO-Y4 or calvaria cells was quantified by trypan blue staining (Jilka et al., 1998). Nonadherent cells were combined with adherent cells released from the culture dish using trypsin-EDTA, resuspended in medium containing serum, and collected by centrifugation. […] At least 100 cells per condition were counted. Trypan vital dye staining is not specific for apoptosis and will also stain necrotic cells. […]

In series [2] the test system is MLO-Y4 cells stably transduced with nuclear GFP. Nature of the series: GFP nuclear stain apoptosis assay in MLO-Y4 cells. It is filed as cell-based, murine. The following applies: CD40L pretreatment 15 min where given, then dexamethasone, TNFα or etoposide 50 μM for 6 h. As to the method: (§1) The MLO-Y4 cells were pretreated with CD40L (0.5-1.5 μg/ml) for 15 mins. followed by treatment with either dexamethasone at 10^−6 M (10^−7M in earlier studies), TNFα at 1 ng/ml or etoposide at 50 μM for 6 hrs. The cells were cultured in 2.5% FBS/2.5% CS in α-MEM, 5% CO2, 37° C.
GFP Nuclear Stain: Visualization of morphological features of apoptosis in the nucleus of the cells, such as chromatin condensation and nuclear fragmentation, was determined in this assay. During apoptosis the nucleus becomes shrunken and pyknotic as a result of DNA degradation. MLO-Y4 cells were stably transduced with a retroviral vector carrying the green fluorescent protein (GFP) CDNA with a nuclear localization sequence designed to target the GFP to the nucleus (Plotkin et al., 1998). […] At least 500 cells from fields selected by systematic random ampling were examined for each condition (Plotkinn et al., 1999; Jilka et al., 1999).

For series [3] the following is noted: approximately 2,000 women randomized; cited from earlier work.
The conditions of series [4]: cited from earlier work.
The subject of another series is MLO-Y4 cells. Briefly: FACS staining for Annexin V/propidium iodide in MLO-Y4 cells. The class given is cell-based, murine. The following applies: CD40L pretreatment 15 min where given, then dexamethasone or TNFα for 6 h. As to the method: as §1
FACS Staining for Annexin V/Propidium Iodide: In early stages of apoptosis the cells lose membrane asymmetry and translocate the membrane phospholipid phosphatidylserine to the outer leaflet of the plasma membrane, where it can be detected by its high affinity binding to annexin V (Rillema, 1998). Annexin V is a calcium-dependent phospholipid-binding protein that has a high affinity for phosphatidylserine. Prolonged apoptosis can cause cell death and these non-viable cells stain positive for vital dye Propidium Iodide (PI) as well as Annexin V. Apoptotic cells stain Annexin V positive and Propidium iodide negative.
The staining protocol includes washing single cell suspension twice with PBS and resuspending in 1×binding buffer (0.1 M HEPES/NaOH, pH 7.4; […]; 25 mM CaCl2) at a concentration of one million cells/ml. The cells are aliquoted (100 μl) in polypropylene tubes, incubated with annexin V FITC (5 μl) and propidium iodide (10 μl) for 15 minutes at 4° C. in the dark, and analyzed by flow cytometry within 1 hour. […]

Consider `COc1cc([C@@H]2c3cc4c(cc3[C@@H](O[C@@H]3O[C@@H]5CO[C@@H](C)O[C@H]5[C@H](O)[C@H]3O)[C@H]3COC(=O)[C@H]23)OCO4)cc(OC)c1O` [Etoposide, etoposide], for which the “Trypan Blue, percent positive cells (dead)” value in series [1] was determined as 15.8 ± 2.0%. In addition, the “GFP, percent positive cells (apoptotic)” value in series [2] was 15.9* percent.
Consider `NCCCC(O)(P(=O)(O)O)P(=O)(O)O` [alendronate], for which the “women with vertebra fractures versus placebo” value in series [3] is on record as “significantly fewer”.
As to `O=C(c1ccc(OCCN2CCCCC2)cc1)c1c(-c2ccc(O)cc2)sc2cc(O)ccc12` [raloxifene], the “proportion of women reporting hot flashes” value in series [4] (60 mg raloxifene daily, placebo 22.7%, no significant difference) is listed as 26.3%. In addition, the endometrial proliferation entry in series [4] (over 600 menopausal women) is “without inducing endometrial proliferation”.
Regarding `C[C@@H]1C[C@H]2[C@@H]3CCC4=CC(=O)C=C[C@]4(C)[C@@]3(F)[C@@H](O)C[C@]2(C)[C@@]1(O)C(=O)CO` [Dex, dexamethasone], the “Trypan Blue, percent positive cells (dead)” value in series [1] came to 13.7 ± 1.4%. The “GFP, percent positive cells (apoptotic)” value in series [2] was 24.0* percent. Further, the “Annexin V, percent positive cells (apoptotic)” value with MLO-Y4 cells is 23.7 ± 1.6%.
